Columns and labels:
c-Src = c-Src (Homo sapiens (Human), UniProt P12931); experiment: c-Src enzyme inhibition, Z-LYTE FRET; format: biochemical
Description: (§1) The enzyme inhibitory activities of compounds disclosed herein are determined by FRET using synthetic peptides labelled with both donor and acceptor fluorophores (Z-LYTE, Invitrogen Ltd., Paisley, UK).
(§2) The inhibitory activities of compounds of the invention against c-Src and Syk enzymes (Invitrogen), are evaluated in a similar fashion to that described hereinabove. The relevant enzyme (3000 ng/mL or 2000 ng/mL respectively, 2.5 μL) is incubated with the test compound (either 1 μg/mL, 0.1 μg/mL, 0.01 μg/mL, or 0.001 μg/mL, 2.5 μL each) for 2 hr at RT. The FRET peptides (8 μM, 2.5 μL), and appropriate ATP solutions (2.5 μL, 800 μM for c-Src, and 60 μM ATP for Syk) are then added to the enzymes/compound mixtures and the mixture incubated for 1 hr. Development reagent (protease, 5 μL) is added for 1 hr prior to detection in a fluorescence microplate reader (Varioskan® Flash, ThermoFisher Scientific).
(§3) In all cases, the site-specific protease cleaves non-phosphorylated peptide only and eliminates the FRET signal. Phosphorylation levels of each reaction are calculated using the ratio of coumarin emission (donor) over fluorescein emission (acceptor), for which high ratios indicate high phosphorylation and low ratios indicate low phosphorylation levels.

Syk = Syk (Homo sapiens (Human), UniProt P43405); experiment: Syk enzyme inhibition, Z-LYTE FRET; format: biochemical
Description: as §1
as §2, with “The” for “The inhibitory activities of compounds of the invention against c-Src and Syk enzymes (Invitrogen), are evaluated in a similar fashion to that described hereinabove. The”
as §3

Jurkat cells = experiment: (r) Cell cytotoxicity assay; format: cell-based, human; settings: 24 hours
How it was run: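 Jurkat cells (1×10^5/well, RPMI + 10% FBS) exposed to compound at 20, 5 or 1 μg/mL final (1.0% DMSO control) for 24 h at 37° C., 5% CO2. Then stained with 7.5 μg/mL propidium iodide for 15 min. % viability = PI-negative cells by flow cytometry, normalized to DMSO.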

p38 MAPKα (MAPK14) = p38 MAPKα (MAPK14) (Homo sapiens (Human), UniProt Q16539); experiment: p38 MAPKα enzyme inhibition (Method 2), Z-LYTE FRET; format: biochemical
Chain of p38 MAPKα (MAPK14) (Q16539 whole entry): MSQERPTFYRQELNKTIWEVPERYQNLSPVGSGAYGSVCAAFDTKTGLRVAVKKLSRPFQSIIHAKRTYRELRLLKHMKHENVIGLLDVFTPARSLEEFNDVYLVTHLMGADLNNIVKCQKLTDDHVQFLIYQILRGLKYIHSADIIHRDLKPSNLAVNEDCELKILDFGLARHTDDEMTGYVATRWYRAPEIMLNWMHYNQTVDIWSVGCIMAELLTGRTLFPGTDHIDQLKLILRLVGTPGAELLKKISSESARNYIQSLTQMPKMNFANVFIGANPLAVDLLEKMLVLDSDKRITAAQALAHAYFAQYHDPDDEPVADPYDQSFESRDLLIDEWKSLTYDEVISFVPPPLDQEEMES
Description: as §1
The following two assay variants can be used for determination of p38 MAPKα inhibition.
The inhibitory activities of test compounds against the p38 MAPKα isoform (MAPK14: Invitrogen) are evaluated indirectly by determining the level of activation/phosphorylation of the down-stream molecule, MAPKAP-K2. The p38 MAPKα protein (80 ng/mL, 2.5 μL) is mixed with the test compound (2.5 μL of either 4 μg/mL, 0.4 μg/mL, 0.04 μg/mL or 0.004 μg/mL) for 2 hr at RT. […] The mixture is incubated for 1 hr at RT. Development reagent (protease, 5 μL) is added for 1 hr prior to detection in a fluorescence microplate reader (Varioskan® Flash, ThermoFisher Scientific).
This method follows the same steps as Method 1 above, but utilises a higher concentration of the p38 MAPKα protein (2.5 μL of 200 ng/mL protein instead of 2.5 μL of 80 ng/mL protein) for mixing with the test compound (tested at either 1 μg/mL, 0.1 μg/mL, 0.01 μg/mL or 0.001 μg/mL).
as §3

Chain of c-Src (P12931 whole entry, looked up): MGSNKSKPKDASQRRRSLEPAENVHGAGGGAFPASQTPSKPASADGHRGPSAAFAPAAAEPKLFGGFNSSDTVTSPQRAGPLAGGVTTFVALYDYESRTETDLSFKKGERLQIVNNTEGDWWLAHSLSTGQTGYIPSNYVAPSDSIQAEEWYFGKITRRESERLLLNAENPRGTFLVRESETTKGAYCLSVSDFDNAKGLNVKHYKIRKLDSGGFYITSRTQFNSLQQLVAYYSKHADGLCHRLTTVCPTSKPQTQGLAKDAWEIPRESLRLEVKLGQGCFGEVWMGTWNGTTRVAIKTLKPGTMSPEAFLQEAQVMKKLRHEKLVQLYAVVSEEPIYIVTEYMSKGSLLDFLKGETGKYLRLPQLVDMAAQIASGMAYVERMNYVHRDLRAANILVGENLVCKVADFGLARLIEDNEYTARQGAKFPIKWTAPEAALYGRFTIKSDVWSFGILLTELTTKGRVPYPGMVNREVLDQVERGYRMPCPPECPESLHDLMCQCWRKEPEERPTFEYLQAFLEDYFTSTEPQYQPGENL

IC50 (c-Src) | IC50 (Syk) | IC50 (p38 MAPKα (MAPK14)) | SMILES | % Viability at 1 μg/mL (Jurkat cells) | % Viability at 5 μg/mL (Jurkat cells) | % Viability at 20 μg/mL (Jurkat cells)
21 nM | 88 nM | 3 nM | COc1cc(Nc2cc(Oc3ccc(NC(=O)Nc4cc(C(C)(C)C)cc(NS(C)(=O)=O)c4OC)c4ccccc34)ccn2)ccc1C(=O)NC[C@H](O)[C@H](O)[C@H](O)CO [Example 42, 4-((4-((4-(3-(5-(tert-Butyl)-2-methoxy-3-(methylsulfonamido)phenyl)ureido)naphthalen-1-yl)oxy)pyridin-2-yl)amino)-2-methoxy-N-((2S,3S4R)-2,3,4,5-tetrahydroxypentyl)benzamide] | 96.6% | 91.7% | 21.3%
40 nM | 108 nM | 36 nM | COc1cc(Nc2cc(Oc3ccc(NC(=O)Nc4cc(C(C)(C)C)cc(NS(C)(=O)=O)c4OC)c4ccccc34)ccn2)ccc1S(=O)(=O)CC(CO)(CO)CO [Example 45, N-(5-(tert-Butyl)-3-(3-(4-((2-((4-((3-hydroxy-2,2-bis(hydroxymethyl)propyl)sulfonyl)-3-methoxyphenyl)amino)pyridin-4-yl)oxy)naphthalen-1-yl)ureido)-2-methoxyphenyl)-methanesulfonamide] | 97.7% | 93.7% | 9.8%
13 nM | 325 nM | 31 nM | COc1cc(Nc2cc(Oc3ccc(NC(=O)Nc4cc(C(C)(C)C)cc(NC(=O)CO)c4OC)c4ccccc34)ccn2)ccc1C(=O)NCCN1CC[S+]([O-])CC1 [Example 41, 4-((4-((4-(3-(5-(tert-Butyl)-3-(2-hydroxyacetamido)-2-methoxyphenyl)ureido)naphthalen-1-yl)oxy)pyridin-2-yl)amino)-2-methoxy-N-(2-(1-oxidothiomorpholino)ethyl)benzamide] | 90.5% | 67.3% | 55.3%
 |  | 40 nM | COc1cc(Nc2cc(Oc3ccc(NC(=O)Nc4cc(C(C)(C)C)cc(NS(C)(=O)=O)c4OC)c4ccccc34)ccn2)ccc1C(=O)NCCN1CCN(C2CC2)CC1 [Example 26, 4-((4-((4-(3-(5-(tert-Butyl)-2-methoxy-3-(methylsulfonamido)phenyl)ureido)naphthalen-1-yl)oxy)pyridin-2-yl)amino)-N-(2-(4-cyclopropylpiperazin-1-yl)ethyl)-2-methoxybenzamide] | 94.8% | 84.6% | 76.6%
16 nM | 15 nM |  | COc1c(NC(=O)Nc2ccc(Oc3ccnc(Nc4ccc(C(=O)NCCN5CCOCC5)c(N(C)C)c4)c3)c3ccccc23)cc(C(C)(C)C)cc1NS(C)(=O)=O [Example 21] | 101.2% | 82.4% | 77.1%

Continued, compound first:

SMILES | IC50 (c-Src) | IC50 (Syk) | IC50 (p38 MAPKα (MAPK14)) | % Viability at 1 μg/mL (Jurkat cells) | % Viability at 5 μg/mL (Jurkat cells) | % Viability at 20 μg/mL (Jurkat cells)
COc1cc(Nc2cc(Oc3ccc(NC(=O)Nc4cc(C(C)(C)C)cc(NS(C)(=O)=O)c4OC)c4ccccc34)ccn2)ccc1C(=O)N(C)CCCN1CCOCC1 [17(af), 4-[[4-[[4-[[5-tert-butyl-3-(methanesulfonamido)-2-methoxy-phenyl]carbamoylamino]-1-naphthyl]oxy]-2-pyridyl]amino]-2-methoxy-N-methyl-N-(3-morpholinopropyl)benzamide] |  |  | 5 nM | 96.7% | 76.2% | 54.1%
COc1cc(Nc2cc(Oc3ccc(NC(=O)Nc4cc(C(C)(C)C)cc(NS(C)(=O)=O)c4OC)c4ccccc34)ccn2)ccc1S(=O)(=O)N(C)CCN1CCOCC1 [17(o), 1-[5-tert-butyl-3-(methanesulfonamido)-2-methoxy-phenyl]-3-[4-[[2-[3-methoxy-4-[methyl(2-morpholinoethyl)sulfamoyl]anilino]-4-pyridyl]oxy]-1-naphthyl]urea] | 232 nM | 948 nM |  |  |  | 
COc1cc(Nc2cc(Oc3ccc(NC(=O)Nc4cc(C(C)(C)C)cc(NS(C)(=O)=O)c4OC)c4ccccc34)ccn2)ccc1S(=O)(=O)N(C)CCCN1CCOCC1 [Example 13, 1-[5-tert-Butyl-3-(methanesulfonamido)-2-methoxy-phenyl]-3-[4-[[2-[3-methoxy-4-[methyl(3-morpholinopropyl)sulfamoyl]anilino]-4-pyridyl]oxy]-1-naphthyl]urea] | 150 nM | 809 nM |  |  |  | 
COCCOCCOCCOc1ccc(Nc2cc(Oc3ccc(NC(=O)Nc4cc(C(C)(C)C)cc(NS(C)(=O)=O)c4OC)c4ccccc34)ccn2)cc1C#N [Example 8, N-(5-(tert-Butyl)-3-(3-(4-((2-((3-cyano-4-(2-(2-(2-methoxyethoxy)ethoxy)ethoxy)phenyl)amino)pyridin-4-yl)oxy)naphthalen-1-yl)ureido)-2-methoxyphenyl)methanesulfonamide] |  |  | 214 nM |  |  | 
COc1cc(Nc2cc(Oc3ccc(NC(=O)Nc4cc(C(C)(C)C)cc(NS(C)(=O)=O)c4OC)c4ccccc34)ccn2)ccc1C(=O)NC(CO)(CO)CO [17(cm), 4-((4-((4-(3-(5-(tert-Butyl)-2-methoxy-3-(methylsulfonamido)phenyl)ureido)naphthalen-1-yl)oxy)pyridin-2-yl)amino)-N-(1,3-dihydroxy-2-(hydroxymethyl)propan-2-yl)-2-methoxybenzamide] | 29 nM | 82 nM | 47 nM | 95.9% | 77.0% | 14.5%
COc1cc(Nc2cc(Oc3ccc(NC(=O)Nc4cc(C(C)(C)C)cc(NS(C)(=O)=O)c4OC)c4ccccc34)ccn2)ccc1S(=O)(=O)CCCN1CCOCC1 [Example 20, N-(5-(tert-Butyl)-2-methoxy-3-(3-(4-((2-((3-methoxy-4-((3-morpholinopropyl)sulfonyl)phenyl)-amino)pyridin-4-yl)oxy)naphthalen-1-yl)ureido)phenyl)methanesulfonamide] | 77 nM | 144 nM |  | 104.0% | 99.3% | 91.8%
COc1cc(Nc2cc(Oc3ccc(NC(=O)Nc4cc(C(C)(C)C)cc(NC(=O)COP(=O)(O)O)c4OC)c4ccccc34)ccn2)ccc1C(=O)NCCN1CC[S+]([O-])CC1 [17(cp), 2-((5-(tert-Butyl)-2-methoxy-3-(3-(4-((2-((3-methoxy-4-((2-(1-oxidothiomorpholino)-ethyl)carbamoyl)phenyl)amino)pyridin-4-yl)oxy)naphthalen-1-yl)ureido)phenyl)amino)-2-oxoethyl dihydrogen phosphate] | 20 nM | 393 nM |  | 97.6% | 96.9% | 94.7%
COc1cc(Nc2cc(Oc3ccc(NC(=O)Nc4cc(C(C)(C)C)cc(NS(C)(=O)=O)c4OC)c4ccccc34)ccn2)ccc1C(=O)NCCC(=O)O [17(ay), 3-(4-((4-((4-(3-(5-(tert-Butyl)-2-methoxy-3-(methylsulfonamido)phenyl)ureido)-naphthalen-1-yl)oxy)pyridin-2-yl)amino)-2-methoxybenzamido)propanoic acid] |  |  |  | 95.3% | 94.6% | 90.1%
COc1cc(Nc2cc(Oc3ccc(NC(=O)Nc4cc(C(C)(C)C)cc(NS(C)(=O)=O)c4OC)c4ccccc34)ccn2)ccc1C(=O)NCCCCCN(C)C [17(bd), 4-((4-((4-(3-(5-(tert-Butyl)-2-methoxy-3-(methylsulfonamido)phenyl)ureido)naphthalen-1-yl)oxy)pyridin-2-yl)amino)-N-(5-(dimethylamino)pentyl)-2-methoxybenzamide] |  |  |  | 85.8% | 28.7% | 0.1%

Source: patent US10125100B2, “Kinase inhibitors” (Respivert Limited, priority 2014, dated 2018)
